Source: ChEMBL document CHEMBL1201862, “PubChem BioAssay data set” (2004)
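Briefly, cells in 96-well plates were exposed to five compound concentrations for 48 h, and endpoints were estimated by linear interpolation. At the GI50, growth is halved.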 Activity calls are given as the source filed them. No stated cut-off is given here; in the data, active = GI50 up to about 1.1 µM and inactive = higher.

Assays:
Assay in all cases: NCI-60 cell line screen, 48 h
EKVX = system: EKVX
HCC 2998 = system: HCC 2998
HCT-116 = system: HCT-116
HL-60 = system: HL-60
HT-29 = system: HT-29
KM12 = system: KM12
M14 = system: M14
MDA-MB-435 = system: MDA-MB-435
NCI-H460 = system: NCI-H460
OVCAR-5 = system: OVCAR-5
OVCAR-8 = system: OVCAR-8
RPMI-8226 = system: RPMI-8226
RXF 393 = system: RXF 393
SF-539 = system: SF-539
SK-OV-3 = system: SK-OV-3
SW-620 = system: SW-620
T47D = system: T47D
UACC-257 = system: UACC-257
SNB-19 = system: SNB-19
BT-549 = system: BT-549

**Q.** `Cc1cc(S(=O)(=O)[N-]/C(=N/S(=O)(=O)c2cc(Cl)sc2Cl)[n+]2ccc(N(C)C)cc2)c(S)cc1Cl` was tested. Which GI50 (EKVX) did it give?
**A.** > 100 µM (inactive)

**Q.** What about the GI50 (HCC 2998) of the same molecule?
**A.** 60.7 µM (inactive)

**Q.** What about the GI50 (HCT-116) of the same molecule?
**A.** 24.1 µM (inactive)

**Q.** And the GI50 (HL-60)?
**A.** > 100 µM (inactive)

**Q.** And the GI50 (HT-29)?
**A.** 30.6 µM (inactive)

**Q.** What about the GI50 (KM12) of the same molecule?
**A.** > 100 µM (inactive)

**Q.** What about the GI50 (M14) of the same molecule?
**A.** 30.3 µM (inactive)

**Q.** What about the GI50 (MDA-MB-435) of the same molecule?
**A.** 62.1 µM (inactive)

**Q.** What about the GI50 (NCI-H460) of the same molecule?
**A.** 44.3 µM (inactive)

**Q.** What about the GI50 (OVCAR-5) of the same molecule?
**A.** 49.3 µM (inactive)

**Q.** What about the GI50 (OVCAR-8) of the same molecule?
**A.** 40.8 µM (inactive)

**Q.** And the GI50 (RPMI-8226)?
**A.** 47.5 µM (inactive)

**Q.** What about the GI50 (RXF 393) of the same molecule?
**A.** 46.3 µM (inactive)

**Q.** And the GI50 (SF-539)?
**A.** 46.6 µM (inactive)

**Q.** And the GI50 (SK-OV-3)?
**A.** 42.9 µM (inactive)

**Q.** What about the GI50 (SW-620) of the same molecule?
**A.** 49.9 µM (inactive)

**Q.** And the GI50 (T47D)?
**A.** > 100 µM (inactive)

**Q.** And the GI50 (UACC-257)?
**A.** > 100 µM (inactive)

**Q.** For `c1csc(-c2ccc(-c3ccc(-c4ccc(-c5cccs5)s4)s3)s2)c1`, which GI50 (EKVX) is on record?
**A.** > 100 µM (inactive)

**Q.** What about the GI50 (HCC 2998) of the same molecule?
**A.** > 100 µM (inactive)

**Q.** What about the GI50 (HCT-116) of the same molecule?
**A.** > 100 µM (inactive)

**Q.** What about the GI50 (HL-60) of the same molecule?
**A.** 14.8 µM (inactive)

**Q.** And the GI50 (HT-29)?
**A.** > 100 µM (inactive)

**Q.** And the GI50 (M14)?
**A.** 26.9 µM (inactive)

**Q.** What about the GI50 (MDA-MB-435) of the same molecule?
**A.** > 100 µM (inactive)

**Q.** And the GI50 (NCI-H460)?
**A.** > 100 µM (inactive)

**Q.** What about the GI50 (OVCAR-5) of the same molecule?
**A.** > 100 µM (inactive)

**Q.** What about the GI50 (OVCAR-8) of the same molecule?
**A.** > 100 µM (inactive)

**Q.** And the GI50 (RPMI-8226)?
**A.** > 100 µM (inactive)

**Q.** What about the GI50 (RXF 393) of the same molecule?
**A.** 56.5 µM (inactive)

**Q.** And the GI50 (SF-539)?
**A.** > 100 µM (inactive)

**Q.** And the GI50 (SK-OV-3)?
**A.** > 100 µM (inactive)

**Q.** And the GI50 (SW-620)?
**A.** > 100 µM (inactive)

**Q.** And the GI50 (UACC-257)?
**A.** > 100 µM (inactive)

**Q.** Which GI50 (HCT-116) does the source give for `O=C(Nc1ccc(N=C=S)cc1Cl)c1cc(Br)cc(Br)c1O` here?
**A.** 16.3 µM (inactive)

**Q.** What about the GI50 (HL-60) of the same molecule?
**A.** 34.5 µM (inactive)

**Q.** And the GI50 (HT-29)?
**A.** 19.8 µM (inactive)

**Q.** What about the GI50 (KM12) of the same molecule?
**A.** 27 µM (inactive)

**Q.** And the GI50 (M14)?
**A.** 33.7 µM (inactive)

**Q.** And the GI50 (MDA-MB-435)?
**A.** 28.1 µM (inactive)

**Q.** What about the GI50 (NCI-H460) of the same molecule?
**A.** 32.6 µM (inactive)

**Q.** And the GI50 (OVCAR-5)?
**A.** 23.7 µM (inactive)

**Q.** What about the GI50 (OVCAR-8) of the same molecule?
**A.** 18.2 µM (inactive)

**Q.** What about the GI50 (RXF 393) of the same molecule?
**A.** 43.9 µM (inactive)

**Q.** And the GI50 (SF-539)?
**A.** 23.9 µM (inactive)

**Q.** And the GI50 (SK-OV-3)?
**A.** 42.9 µM (inactive)

**Q.** And the GI50 (SNB-19)?
**A.** 24.6 µM (inactive)

**Q.** What about the GI50 (SW-620) of the same molecule?
**A.** 27.3 µM (inactive)

**Q.** And the GI50 (T47D)?
**A.** 39.7 µM (inactive)

**Q.** What about the GI50 (UACC-257) of the same molecule?
**A.** 21.4 µM (inactive)

**Q.** How did the GI50 (EKVX) turn out when `CC(C)C(=O)/C=C/S/C=C/C(=O)C(C)C` was run?
**A.** 5 µM (inactive)

**Q.** And the GI50 (HCT-116)?
**A.** 1.69 µM (inactive)

**Q.** And the GI50 (HT-29)?
**A.** 4.09 µM (inactive)

**Q.** And the GI50 (KM12)?
**A.** 30.3 µM (inactive)

**Q.** And the GI50 (M14)?
**A.** 3.92 µM (inactive)

**Q.** And the GI50 (MDA-MB-435)?
**A.** 10.4 µM (inactive)

**Q.** And the GI50 (NCI-H460)?
**A.** 10.8 µM (inactive)

**Q.** What about the GI50 (OVCAR-5) of the same molecule?
**A.** 5.27 µM (inactive)

**Q.** What about the GI50 (OVCAR-8) of the same molecule?
**A.** 2.7 µM (inactive)

**Q.** What about the GI50 (RXF 393) of the same molecule?
**A.** 4.54 µM (inactive)

**Q.** And the GI50 (SF-539)?
**A.** 16.8 µM (inactive)

**Q.** What about the GI50 (SK-OV-3) of the same molecule?
**A.** 41.8 µM (inactive)

**Q.** And the GI50 (SNB-19)?
**A.** 28.3 µM (inactive)

**Q.** What about the GI50 (SW-620) of the same molecule?
**A.** 3.33 µM (inactive)

**Q.** And the GI50 (T47D)?
**A.** 5.16 µM (inactive)

**Q.** And the GI50 (UACC-257)?
**A.** 2.72 µM (inactive)

**Q.** Which results are given for `COc1cc(C2C(Cl)C(=O)N2NC(=O)c2ccccc2O)cc(OC)c1OC` (configuration not stated)?
**A.** GI50 (BT-549): > 10 µM (inactive); GI50 (EKVX): 5.27 µM (inactive); GI50 (HL-60): 0.733 µM (active); GI50 (HT-29): 2.75 µM (inactive); GI50 (KM12): 5.58 µM (inactive); GI50 (M14): 6.31 µM (inactive); GI50 (MDA-MB-435): 6.03 µM (inactive); GI50 (NCI-H460): 2.64 µM (inactive); GI50 (OVCAR-5): 5.96 µM (inactive); GI50 (OVCAR-8): 2.47 µM (inactive); GI50 (RXF 393): > 10 µM (inactive); GI50 (SF-539): 3.5 µM (inactive); GI50 (SNB-19): 7.05 µM (inactive); GI50 (SW-620): 2.63 µM (inactive); GI50 (UACC-257): 1.89 µM (inactive)

**Q.** Which results are given for `O=C(COc1ccccc1)NS(=O)(=O)c1ccccc1`?
**A.** GI50 (EKVX): > 100 µM (inactive); GI50 (HCC 2998): > 100 µM (inactive); GI50 (HCT-116): > 100 µM (inactive); GI50 (HL-60): > 100 µM (inactive); GI50 (HT-29): > 100 µM (inactive); GI50 (KM12): > 100 µM (inactive); GI50 (M14): > 100 µM (inactive); GI50 (NCI-H460): > 100 µM (inactive); GI50 (OVCAR-5): > 100 µM (inactive); GI50 (OVCAR-8): > 100 µM (inactive); GI50 (RPMI-8226): > 100 µM (inactive); GI50 (RXF 393): > 100 µM (inactive); GI50 (SF-539): > 100 µM (inactive); GI50 (SK-OV-3): > 100 µM (inactive); GI50 (SNB-19): > 100 µM (inactive); GI50 (SW-620): > 100 µM (inactive); GI50 (UACC-257): > 100 µM (inactive)

**Q.** `CCOC(=O)C12CCCC1(O)N(NC(=O)c1cccc(Cl)c1)C(C)=C2C(=O)OC` (configuration not stated) was tested. Which GI50 (EKVX) did it give?
**A.** 56.6 µM (inactive)

**Q.** What about the GI50 (HCC 2998) of the same molecule?
**A.** > 100 µM (inactive)

**Q.** What about the GI50 (HCT-116) of the same molecule?
**A.** > 100 µM (inactive)

**Q.** What about the GI50 (HL-60) of the same molecule?
**A.** > 100 µM (inactive)

**Q.** And the GI50 (HT-29)?
**A.** > 100 µM (inactive)

**Q.** What about the GI50 (KM12) of the same molecule?
**A.** > 100 µM (inactive)

**Q.** What about the GI50 (M14) of the same molecule?
**A.** > 100 µM (inactive)

**Q.** And the GI50 (NCI-H460)?
**A.** > 100 µM (inactive)

**Q.** And the GI50 (OVCAR-5)?
**A.** > 100 µM (inactive)

**Q.** What about the GI50 (OVCAR-8) of the same molecule?
**A.** > 100 µM (inactive)

**Q.** And the GI50 (RPMI-8226)?
**A.** 56 µM (inactive)

**Q.** What about the GI50 (RXF 393) of the same molecule?
**A.** 46.5 µM (inactive)

**Q.** What about the GI50 (SF-539) of the same molecule?
**A.** > 100 µM (inactive)

**Q.** And the GI50 (SK-OV-3)?
**A.** > 100 µM (inactive)

**Q.** And the GI50 (SNB-19)?
**A.** > 100 µM (inactive)

**Q.** What about the GI50 (SW-620) of the same molecule?
**A.** > 100 µM (inactive)

**Q.** And the GI50 (UACC-257)?
**A.** 69.5 µM (inactive)

**Q.** With `Cc1ccc(S(=O)(=O)N/N=C/c2oc(-c3ccccc3Cl)c(-c3ccccc3Cl)c2[N+](=O)[O-])cc1` as the molecule, how does the GI50 (EKVX) read?
**A.** 31.5 µM (inactive)

**Q.** And the GI50 (HCC 2998)?
**A.** 21 µM (inactive)

**Q.** And the GI50 (HCT-116)?
**A.** 6.37 µM (inactive)

**Q.** What about the GI50 (HL-60) of the same molecule?
**A.** 8.02 µM (inactive)

**Q.** And the GI50 (HT-29)?
**A.** 31.2 µM (inactive)

**Q.** And the GI50 (KM12)?
**A.** > 100 µM (inactive)

**Q.** What about the GI50 (M14) of the same molecule?
**A.** 31 µM (inactive)

**Q.** And the GI50 (NCI-H460)?
**A.** 13.2 µM (inactive)

**Q.** And the GI50 (OVCAR-5)?
**A.** 17.5 µM (inactive)

**Q.** And the GI50 (OVCAR-8)?
**A.** 22.3 µM (inactive)

**Q.** And the GI50 (RPMI-8226)?
**A.** 3.73 µM (inactive)

**Q.** What about the GI50 (RXF 393) of the same molecule?
**A.** 13.8 µM (inactive)

**Q.** What about the GI50 (SF-539) of the same molecule?
**A.** 22.4 µM (inactive)

**Q.** And the GI50 (SK-OV-3)?
**A.** 45 µM (inactive)

**Q.** What about the GI50 (SNB-19) of the same molecule?
**A.** 15.6 µM (inactive)

**Q.** What about the GI50 (SW-620) of the same molecule?
**A.** 21 µM (inactive)

**Q.** What about the GI50 (UACC-257) of the same molecule?
**A.** 37.2 µM (inactive)
